# How the values were obtained:
# [1] = Drug excipient compatibility study, chemical stability of binary mixtures of tesofensine and excipients; assay type: physicochemical
# From the text: A compatibility study investigating the chemical stability of binary mixtures of tesofensine and pharmaceutically acceptable excipients has been conducted.
# [2] = Dissolution tests / dissolution profile; assay type: physicochemical
# Experimental: The active ingredient dissolves from the coated tablets within 30 minutes. FIGS. 1, 2 and 3 show dissolution profiles for tesofensine compositions B and C with a dose strength of 0.25 mg, 0.5 mg and 1.0 mg.
# [3] = Solubility of the active ingredient in granulating liquid; assay type: physicochemical; conditions: ethanol/mixtures compared to pure water or ethanol
# From the text: Microcrystalline cellulose also was compatible with the active ingredient. Hydroxypropylcellulose was selected as binder due to its compatibility with the active ingredient. The amount of binder was adequate to provide sufficient resistance to crushing and plasticity of the granules. Crosscarmelllose sodium was selected as disintegrant as it is an effective disintegrant and is compatible with the active ingredient. The amount of croscarmellose sodium was sufficient to provide the desired disintegration. The amount of magnesium stearate selected was sufficient to avoid sticking to tableting tooling during compression. Ethanol was selected as co-solvent in the granulating liquid as ethanol evaporates easily for improved drying properties of the granulate.
# [4] = cited from earlier work
Compound,Compatibility of excipient with tesofensine [1],Decomposition of tesofensine with excipient [1],Solubility [2],Solubility of the active ingredient [3],in-vivo half-life [4]
magnesium stearate,Incompatibility,the extent of decomposition was low,–,–,–
"CCOC[C@H]1C2CCC(C[C@@H]1c1ccc(Cl)c(Cl)c1)N2C (stereo partly drawn) [tesofensine, (3S,4R)-3-(3,4-dichlorophenyl)-4-(ethoxymethyl)-8-methyl-8-azabicyclo[3.2.1]octane]",–,–,readily soluble,increased,in the range of days
"O.OC[C@H]1O[C@@H](O[C@H]2[C@H](O)[C@@H](O)C(O)O[C@@H]2CO)[C@H](O)[C@@H](O)[C@H]1O (stereo partly drawn) [lactose, lactose monohydrate]",compatible,–,–,–,–

# From US9949964B2, “Tesofensine compositions” (Saniona A/S, priority 2016, dated 2018)
